Experimental data taken from the supplement of paper PMC10627819.

Experiments:
S. aureus DSM 20231 = assay: fitness (endpoint OD595 vs no drug) (fraction); higher = more growth
Summary of the method: (§1)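 With the first reading as background, OD595 was measured every 30 min for 14 h in 384-well plates kept at 37 °C and inoculated at OD595 0.01. TSB, LB Lennox or CY was the medium. Fitness is the optical density at the transition into stationary phase divided by the robust mean of no-drug control wells, with a cap of 1.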

S. pneumoniae D39V = assay: as above
Summary of the method: as §1
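Also: OD595 on entry to stationary phase over no-drug wells; at most 1.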

CC(=O)Oc1ccccc1C(=O)O [Acetylsalicylic acid] + CC1=C\[C@@H](O)CC(=O)Cc2nc(co2)C(=O)N2CCC=C2C(=O)O[C@H](C(C)C)[C@H](C)/C=C/C(=O)NC\C=C\1 [Virginiamycin M1]
fitness
Settings | first compound 250 µg/mL | first compound 500 µg/mL | first compound 1000 µg/mL
S. aureus DSM 20231, partner 0.0625 µg/mL | 0.86 | 0.764 | 0.564
S. aureus DSM 20231, partner 0.125 µg/mL | 0.922 | – | –
S. aureus DSM 20231, partner 0.25 µg/mL | 0.877 | 0.715 | 0.503
S. pneumoniae D39V, partner 0.5 µg/mL | 0.967 | 0.964 | 0.872
S. pneumoniae D39V, partner 1 µg/mL | 0.914 | 0.961 | –
S. pneumoniae D39V, partner 2 µg/mL | 0.933 | 0.903 | –

fitness, one replicate
Settings | first compound 250 µg/mL | first compound 500 µg/mL | first compound 1000 µg/mL
S. aureus DSM 20231, partner 0.5 µg/mL | 0.776 | 0.789 | 0.371
S. aureus DSM 20231, partner 1 µg/mL | 0.818 | 0.781 | 0.389
S. pneumoniae D39V, partner 0.15 µg/mL | 0.954 | 0.988 | 0.949
S. pneumoniae D39V, partner 0.3 µg/mL | 0.951 | 0.938 | 0.918

CC(=O)Oc1ccccc1C(=O)O [Acetylsalicylic acid] + CC(=O)NC[C@H]1CN(c2ccc(N3CCOCC3)c(F)c2)C(=O)O1 [Linezolid]
fitness
Settings | first compound 250 µg/mL | first compound 500 µg/mL | first compound 1000 µg/mL
S. aureus DSM 20231, partner 0.125 µg/mL | 0.868 | – | 0.509
S. aureus DSM 20231, partner 0.25 µg/mL | 0.582 | 0.486 | 0.275
S. aureus DSM 20231, partner 0.5 µg/mL | 0.203 | 0.159 | 0.117
S. pneumoniae D39V, partner 0.105 µg/mL | 0.879 | 0.866 | 0.776
S. pneumoniae D39V, partner 0.2 µg/mL | 0.675 | 0.623 | 0.463
S. pneumoniae D39V, partner 0.21 µg/mL | 0.756 | 0.773 | 0.712
S. pneumoniae D39V, partner 0.4 µg/mL | 0.598 | 0.582 | 0.439
S. pneumoniae D39V, partner 0.42 µg/mL | 0.573 | 0.561 | 0.442
S. pneumoniae D39V, partner 0.8 µg/mL | 0.252 | 0.24 | 0.208

S. aureus DSM 20231, partner 1 µg/mL, one replicate
Settings | fitness
first compound 250 µg/mL | 0.0592
first compound 500 µg/mL | 0.0468
first compound 1000 µg/mL | 0.0354

CC(=O)Oc1ccccc1C(=O)O [Acetylsalicylic acid] + CCCCCCCCCC(=O)N[C@@H]1[C@H]([C@@H]([C@H](O[C@H]1OC2=C3C=C4C=C2OC5=C(C=C(C=C5)[C@H]([C@H]6C(=O)N[C@@H](C7=C(C(=CC(=C7)O)OC8[C@H]([C@H]([C@@H]([C@H](O8)CO)O)O)O)C9=C(C=CC(=C9)[C@H](C(=O)N6)NC(=O)[C@@H]4NC(=O)[C@@H]1C2=CC(=CC(=C2)OC2=C(C=CC(=C2)[C@H](C(=O)N[C@H](CC2=CC(=C(O3)C=C2)Cl)C(=O)N1)N)O)O)O)C(=O)O)O[C@H]1[C@@H]([C@H]([C@@H]([C@H](O1)CO)O)O)NC(=O)C)Cl)CO)O)O [Teicoplanin]
fitness, S. aureus DSM 20231, main component drawn
Settings | partner 0.1562 µg/mL | partner 0.3125 µg/mL | partner 0.625 µg/mL
first compound 250 µg/mL | 0.957 | 0.98 | 0.979
first compound 500 µg/mL | 0.887 | 0.894 | 0.871

CC(=O)Oc1ccccc1C(=O)O [Acetylsalicylic acid] + CCC[C@@H]1C[C@@H](C(=O)N[C@@H]([C@H]2O[C@H](SC)[C@H](O)[C@@H](O)[C@H]2O)[C@@H](C)O)N(C)C1 [Lincomycin]
fitness
Settings | partner 0.1 µg/mL | partner 0.2 µg/mL | partner 0.215 µg/mL | partner 0.4 µg/mL | partner 0.43 µg/mL | partner 0.8 µg/mL | partner 0.86 µg/mL
S. aureus DSM 20231, first compound 250 µg/mL | 0.863 | 0.84 | – | – | – | – | –
S. aureus DSM 20231, first compound 500 µg/mL | 0.81 | 0.795 | – | – | – | – | –
S. aureus DSM 20231, first compound 1000 µg/mL | – | – | – | 0.204 | – | – | –
S. pneumoniae D39V, first compound 250 µg/mL | – | 0.528 | 0.866 | 0.389 | 0.748 | 0.116 | 0.377
S. pneumoniae D39V, first compound 500 µg/mL | – | 0.455 | 0.824 | 0.368 | 0.749 | 0.0711 | 0.389
S. pneumoniae D39V, first compound 1000 µg/mL | – | 0.344 | 0.841 | 0.213 | 0.746 | 0.0378 | 0.35

CC(=O)Oc1ccccc1C(=O)O [Acetylsalicylic acid] + CCC[C@@H]1C[C@@H](C(=O)N[C@@H]([C@H]2O[C@H](SC)[C@H](O)[C@@H](O)[C@H]2O)[C@H](C)Cl)N(C)C1 [Clindamycin]
fitness
Settings | first compound 250 µg/mL | first compound 500 µg/mL | first compound 1000 µg/mL
S. aureus DSM 20231, partner 0.0312 µg/mL | – | – | 0.28
S. aureus DSM 20231, partner 0.0625 µg/mL | 0.143 | 0.169 | 0.114
S. aureus DSM 20231, partner 0.125 µg/mL | 0.0488 | 0.0833 | 0.0683
S. pneumoniae D39V, partner 0.0125 µg/mL | 0.759 | 0.697 | 0.508
S. pneumoniae D39V, partner 0.015 µg/mL | 0.857 | 0.771 | 0.528
S. pneumoniae D39V, partner 0.025 µg/mL | 0.468 | 0.435 | 0.37
S. pneumoniae D39V, partner 0.03 µg/mL | 0.677 | 0.574 | 0.37
S. pneumoniae D39V, partner 0.05 µg/mL | 0.164 | 0.166 | 0.129
S. pneumoniae D39V, partner 0.06 µg/mL | 0.331 | 0.246 | 0.104

CC(=O)Oc1ccccc1C(=O)O [Acetylsalicylic acid] + CCN(CC)CCOC(=O)c1ccc(N)cc1 [Procaine]
fitness
Settings | partner 85.5 µg/mL | partner 171 µg/mL | partner 342 µg/mL
S. aureus DSM 20231, first compound 250 µg/mL | 0.916 | 0.971 | 0.963
S. aureus DSM 20231, first compound 500 µg/mL | 0.849 | 0.896 | –
S. pneumoniae D39V, first compound 250 µg/mL | ≥ 1 | 0.989 | 0.966
S. pneumoniae D39V, first compound 500 µg/mL | ≥ 1 | 0.995 | 0.97
S. pneumoniae D39V, first compound 1000 µg/mL | 0.922 | 0.86 | 0.89

CC(=O)Oc1ccccc1C(=O)O [Acetylsalicylic acid] + CC[C@H]1OC(=O)[C@H](C)[C@@H](O[C@H]2C[C@@](C)(OC)[C@@H](O)[C@H](C)O2)[C@H](C)[C@@H](O[C@@H]2O[C@H](C)C[C@H](N(C)C)[C@H]2O)[C@](C)(O)C[C@@H](C)CN(C)[C@H](C)[C@@H](O)[C@]1(C)O [Azithromycin]
fitness, S. aureus DSM 20231
Settings | first compound 250 µg/mL | first compound 500 µg/mL | first compound 1000 µg/mL
partner 0.125 µg/mL | 0.806 | 0.714 | 0.601
partner 0.25 µg/mL | 0.83 | 0.748 | 0.614
partner 0.5 µg/mL | 0.702 | – | 0.597

CC(=O)Oc1ccccc1C(=O)O [Acetylsalicylic acid] + CN1C2=CC=CC=C2N=C3C1=CC=CC3=O [Pyocyanin]
fitness
Settings | first compound 250 µg/mL | first compound 500 µg/mL | first compound 1000 µg/mL
S. aureus DSM 20231, partner 1.25 µg/mL | 0.826 | 0.679 | 0.525
S. aureus DSM 20231, partner 2.5 µg/mL | 0.751 | 0.607 | 0.437
S. aureus DSM 20231, partner 5 µg/mL | 0.611 | 0.551 | 0.268
S. pneumoniae D39V, partner 0.325 µg/mL | ≥ 1 | 0.995 | 0.917
S. pneumoniae D39V, partner 0.65 µg/mL | 1 | 0.98 | 0.681
S. pneumoniae D39V, partner 1.3 µg/mL | 0.863 | 0.722 | 0.467

CC(=O)Oc1ccccc1C(=O)O [Acetylsalicylic acid] + CN(C)[C@@H]1C(O)=C(C(N)=O)C(=O)[C@@]2(O)C(O)=C3C(=O)c4c(O)ccc(Cl)c4[C@@](C)(O)[C@H]3C[C@@H]12 [Chlortetracycline]
S. aureus DSM 20231, partner 0.006 µg/mL, one replicate
Settings | fitness
first compound 250 µg/mL | 0.686
first compound 500 µg/mL | 0.525
first compound 1000 µg/mL | 0.342

fitness
Settings | partner 0.012 µg/mL | partner 0.024 µg/mL | partner 0.048 µg/mL | partner 0.375 µg/mL | partner 0.75 µg/mL | partner 1.5 µg/mL
S. aureus DSM 20231, first compound 250 µg/mL | 0.525 | – | – | – | – | –
S. aureus DSM 20231, first compound 500 µg/mL | 0.467 | 0.221 | 0.0964 | – | – | –
S. aureus DSM 20231, first compound 1000 µg/mL | 0.21 | 0.0899 | 0.0347 | – | – | –
S. pneumoniae D39V, first compound 250 µg/mL | 0.842 | 0.658 | 0.322 | 0.123 | 0.119 | 0.101
S. pneumoniae D39V, first compound 500 µg/mL | 0.831 | 0.606 | 0.281 | 0.129 | 0.0804 | 0.138
S. pneumoniae D39V, first compound 1000 µg/mL | 0.669 | 0.47 | 0.297 | 0.0772 | 0.0378 | 0.0721
